Results reported in patent US8003649B2 (AstraZeneca AB, priority 2007, dated 2011).

The molecules below were run against T1, Androgen Receptor (AR) (Homo sapiens, UniProt P10275, T878A) (assay: LNCaP Androgen Receptor Down-regulation Cell Assay (immunofluorescence end point)). Details: LNCaP prostate carcinoma cells, compound incubation 20-22 hours, 50% reduction of the AR signal; read-out: Androgen Receptor Down-regulation Assay (a) IC50/μM.
T1 construct: cell based immuno-fluorescence assay using the LNCaP prostate epithelial cell line; endogenous in cells; host or cells: LNCaP clone FGC (ATCC CRL-1740)
T1 sequence (P10275 1-920 T878A): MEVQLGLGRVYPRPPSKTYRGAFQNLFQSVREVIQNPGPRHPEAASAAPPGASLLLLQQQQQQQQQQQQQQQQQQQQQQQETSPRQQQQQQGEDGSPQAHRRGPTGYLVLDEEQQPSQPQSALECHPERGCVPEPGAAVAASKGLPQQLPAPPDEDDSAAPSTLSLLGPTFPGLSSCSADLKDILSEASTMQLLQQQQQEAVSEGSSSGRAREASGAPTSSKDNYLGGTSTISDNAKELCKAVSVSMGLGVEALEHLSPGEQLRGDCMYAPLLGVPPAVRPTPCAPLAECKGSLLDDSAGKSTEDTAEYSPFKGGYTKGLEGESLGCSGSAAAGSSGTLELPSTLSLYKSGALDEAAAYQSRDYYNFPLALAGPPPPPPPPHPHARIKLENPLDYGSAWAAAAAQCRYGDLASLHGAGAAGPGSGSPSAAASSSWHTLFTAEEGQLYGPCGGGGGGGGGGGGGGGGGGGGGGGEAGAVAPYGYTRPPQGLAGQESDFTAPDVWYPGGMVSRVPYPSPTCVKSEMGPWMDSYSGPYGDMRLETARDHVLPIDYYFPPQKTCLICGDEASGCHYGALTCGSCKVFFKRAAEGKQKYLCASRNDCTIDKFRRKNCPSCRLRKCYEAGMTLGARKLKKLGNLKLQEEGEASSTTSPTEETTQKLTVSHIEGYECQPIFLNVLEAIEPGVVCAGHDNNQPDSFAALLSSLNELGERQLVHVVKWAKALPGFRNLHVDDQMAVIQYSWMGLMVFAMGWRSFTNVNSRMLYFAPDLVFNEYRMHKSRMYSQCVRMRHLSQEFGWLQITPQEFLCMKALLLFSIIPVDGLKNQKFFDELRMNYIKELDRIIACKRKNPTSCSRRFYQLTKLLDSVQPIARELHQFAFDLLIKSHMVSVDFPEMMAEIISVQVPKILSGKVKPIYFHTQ
Assay type: cell-based
Method in brief: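 AR loss reported as IC50 from curve fits of fluorescence dose-response data, with AR immunostained and read by laser-scanning cytometry. Compound exposure was 20-22 h at 37° C in LNCaP cells grown in 5% charcoal-stripped FBS and plated overnight beforehand.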
`N#Cc1cccc(CN2CCN(c3ccc4nnc(C(F)(F)F)n4n3)CC2)c1` [Example 43, 3-[[4-[3-(trifluoromethyl)-[1,2,4]triazolo[4,3-b]pyridazin-6-yl]piperazin-1-yl]methyl]benzonitrile] showed a DC50 of 1.5 µM.
`Cc1ccc(CN2CCN(c3ccc4nnc(C(F)(F)F)n4n3)CC2)cc1` [Example 47, 6-[4-[(4-methylphenyl)methyl]piperazin-1-yl]-3-(trifluoromethyl)-[1,2,4]triazolo[4,3-b]pyridazine] was tested, and the DC50 was 1.5 µM.
For `FC(F)(F)c1nnc2ccc(N3CCC(c4c[nH]c5cccnc45)CC3)nn12` [Example 328], the DC50 was 0.75 µM.
With `OC1(c2cccc(Cl)c2)CCN(c2ccc3nnc(C(F)(F)F)n3n2)CC1` [Example 313] the DC50 was 1.8 µM.
`Fc1cc(Cl)cc(CN2CCN(c3ccc4nnc(C(F)F)n4n3)CC2)c1` [Example 813] showed a DC50 of 6.8 µM.
In the case of `N#Cc1ccccc1OC1CCN(c2ccc3nnc(C(F)(F)F)n3n2)CC1` [Example 654], the DC50 is reported as 2.6 µM.
`CNC(=O)c1ccc(C2CCN(c3ccc4nnc(C(F)(F)F)n4n3)CC2)cc1` [Example 522] gave a DC50 of 3.9 µM.
`Fc1ccc(C(F)F)c(CN2CCN(c3ccc4nnc(C(F)(F)F)n4n3)CC2)c1` [Example 779, 6-[4-[2-(difluoromethyl)-5-fluorobenzyl]piperazin-1-yl]-3-(trifluoromethyl)[1,2,4]triazolo[4,3-b]pyridazine] gave a DC50 of 0.54 µM.
`FC(F)(F)c1nnc2ccc(N3CCC(c4ccncc4)CC3)nn12` [Example 540] showed a DC50 of 1.5 µM.
`FC(F)(F)c1ccnc(OC2CCN(c3ccc4nnc(C(F)(F)F)n4n3)CC2)c1` [Example 621] gave a DC50 of 2.3 µM.
With `FC(F)(F)c1nnc2ccc(N3CCN(Cc4c[nH]c5cnccc45)CC3)nn12` [Example 477] the DC50 was 6.3 µM.
Work on `CN(Cc1ccc(F)c(C#N)c1)C1CCN(c2ccc3nnc(C(F)(F)F)n3n2)CC1` [Example 411] yielded a DC50 of 2.2 µM.
With `Fc1cccc(CN2CCN(c3ccc4nnc(C(F)F)n4n3)CC2)c1F` [Example 256] the DC50 was 7.4 µM.
With `Fc1cc(Cl)cc(CN2CCN(c3ccc4nnc(C(F)(F)F)n4n3)CC2)c1` [Example 759] the DC50 was 3.9 µM.
For `FC(F)(F)c1nnc2ccc(N3CCN(Cc4n[nH]c5ccccc45)CC3)nn12` [Example 285, 6-[4-(1H-indazol-3-ylmethyl)piperazin-1-yl]-3-(trifluoromethyl)[1,2,4]triazolo[4,3-b]pyridazine], the DC50 was 2.7 µM.
Molecule `FC(F)(F)c1nnc2ccc(N3CCN(Cc4ccc(Br)cc4)CC3)nn12` [Example 127, 6-[4-[(4-bromophenyl)methyl]piperazin-1-yl]-3-(trifluoromethyl)-[1,2,4]triazolo[4,3-b]pyridazine] has a DC50 of 1.5 µM.
In the case of `OCc1cccc(CN2CCN(c3ccc4nnc(C(F)(F)F)n4n3)CC2)c1` [Example 149, [3-[[4-[3-(trifluoromethyl)-[1,2,4]triazolo[4,3-b]pyridazin-6-yl]piperazin-1-yl]methyl]phenyl]methanol], the DC50 is reported as 7.9 µM.
`O=[N+]([O-])c1ccc(CN2CCN(c3ccc4nnc(C(F)(F)F)n4n3)CC2)cc1` [Example 111, 6-[4-[(4-nitrophenyl)methyl]piperazin-1-yl]-3-(trifluoromethyl)-[1,2,4]triazolo[4,3-b]pyridazine] showed a DC50 of 0.77 µM.
Molecule `Fc1cccc(OC2CCN(c3ccc4nnc(C(F)F)n4n3)CC2)c1` [Example 268] has a DC50 of 0.91 µM.
`FC(F)(F)c1nnc2ccc(N3CCN(Cc4ccc(-c5cccnc5)cc4)CC3)nn12` [Example 117, 6-[4-[(4-pyridin-3-ylphenyl)methyl]piperazin-1-yl]-3-(trifluoromethyl)-[1,2,4]triazolo[4,3-b]pyridazine] was tested, and the DC50 was 1.7 µM.
`C=CCOc1ccc(CN2CCN(c3ccc4nnc(C(F)(F)F)n4n3)CC2)cc1` [Example 139, 6-[4-[(4-prop-2-enoxyphenyl)methyl]piperazin-1-yl]-3-(trifluoromethyl)-[1,2,4]triazolo[4,3-b]pyridazine] showed a DC50 of 2 µM.
With `CN(C)CCCOc1ccc(CN2CCN(c3ccc4nnc(C(F)(F)F)n4n3)CC2)cc1` [Example 112, N,N-dimethyl-3-[4-[[4-[3-(trifluoromethyl)-[1,2,4]triazolo[4,3-b]pyridazin-6-yl]piperazin-1-yl]methyl]phenoxy]propan-1-amine] the DC50 was 4.7 µM.
`FC(F)c1nnc2ccc(N3CCN(Cc4c(Cl)[nH]c5ccccc45)CC3)nn12` [Example 291] was tested, and the DC50 was greater than 9.7 µM.
With `CC1CN(c2ccc3nnc(C(F)(F)F)n3n2)C(C)CN1Cc1ccc(C#N)cc1` (stereo not shown) [Example 218] the DC50 was greater than 7.3 µM.
In the case of `CN(C)c1ccc(CN2CCN(c3ccc4nnc(C(F)(F)F)n4n3)CC2)cc1` [Example 106, N,N-dimethyl-4-[[4-[3-(trifluoromethyl)-[1,2,4]triazolo[4,3-b]pyridazin-6-yl]piperazin-1-yl]methyl]aniline], the DC50 is reported as 4.4 µM.
`FC(F)(F)c1nnc2ccc(N3CCN(c4ccccc4Cl)CC3)nn12` [Example 37, 6-[4-(2-chlorophenyl)piperazin-1-yl]-3-(trifluoromethyl)-[1,2,4]triazolo[4,3-b]pyridazine] was tested, and the DC50 was 1.4 µM.
In the case of `FC(F)(F)c1nnc2ccc(N3CCC(c4c[nH]c5ccncc45)CC3)nn12` [Example 326], the DC50 is reported as 2 µM.
`N#Cc1cccc(CN2CCN(c3ccc4nnc(C(F)(F)F)n4c3)CC2)c1` [Example 188, 3-[[4-[3-(trifluoromethyl)-[1,2,4]triazolo[4,3-a]pyridin-6-yl]piperazin-1-yl]methyl]benzonitrile] was tested, and the DC50 was 2.2 µM.
Work on `O=C(CN1CCCC1)Nc1cccc(C2CCN(c3ccc4nnc(C(F)(F)F)n4n3)CC2)c1` [Example 712] yielded a DC50 of 3 µM.
`FC(F)(F)c1ccc(OC2CCN(c3ccc4nnc(C(F)(F)F)n4n3)CC2)nc1` [Example 719] gave a DC50 of 3.5 µM.
Work on `COc1cccc(O[C@@H]2CCN(c3ccc4nnc(C(F)(F)F)n4n3)C2)c1` [Example 586] yielded a DC50 of 2.1 µM.
`O=C(CN1CCOCC1)Nc1cccc(C2CCN(c3ccc4nnc(C(F)(F)F)n4n3)CC2)c1` [Example 713] showed a DC50 of 0.81 µM.
Work on `N#Cc1ccc(CN2CCN(c3ccc4nnc(C(F)(F)Cl)n4n3)CC2)cc1` [Example 342] yielded a DC50 of 2.1 µM.
With `CC1CN(c2ccc3nnc(C(F)(F)F)n3n2)C(C)CN1Cc1cc(F)cc(F)c1` (stereo not shown) [Example 220] the DC50 was 3.6 µM.
Work on `CS(=O)(=O)N1CCN(CCCOc2ccc(C3CCN(c4ccc5nnc(C(F)(F)F)n5n4)CC3)cc2)CC1` [Example 855, 6-[4-[4-[3-[4-(methylsulfonyl)piperazin-1-yl]propoxy]phenyl]piperidin-1-yl]-3-(trifluoromethyl)[1,2,4]triazolo[4,3-b]pyridazine] yielded a DC50 of 0.44 µM.
Molecule `FC(F)(F)c1nnc2ccc(N3CCN(Cc4ccc5c(c4)OCCO5)CC3)nn12` [Example 88, 6-[4-(2,3-dihydro-1,4-benzodioxin-6-ylmethyl)piperazin-1-yl]-3-(trifluoromethyl)-[1,2,4]triazolo[4,3-b]pyridazine] has a DC50 of 1.5 µM.
Molecule `CN1CCN(C(=O)c2ccc3[nH]cc(C4CCN(c5ccc6nnc(C(F)(F)F)n6n5)CC4)c3c2)CC1` [Example 497] has a DC50 of 2.8 µM.
`Fc1cccc(CN2CCN(c3ccc4nnc(C(F)(F)Cl)n4n3)CC2)c1` [Example 345] was tested, and the DC50 was 1.1 µM.
`Fc1cccc(CN2CCN(c3ccc4nnc(C(F)(F)F)n4n3)CC2)c1C(F)(F)F` [Example 761] was tested, and the DC50 was 1.5 µM.
For `N#Cc1ccc(OC2CCN(c3ccc4nnc(C(F)(F)F)n4n3)CC2)cn1` [Example 448, 5-[[1-[3-(trifluoromethyl)-[1,2,4]triazolo[4,3-b]pyridazin-6-yl]piperidin-4-yl]oxy]pyridine-2-carbonitrile], the DC50 was 6.3 µM.
Work on `FC(F)(F)c1nnc2ccc(N3CCCC(COc4ccccc4)C3)nn12` (stereo not shown) [Example 516, 6-[3-(Phenoxymethyl)piperidin-1-yl]-3-(trifluoromethyl)[1,2,4]triazolo[4,3-b]pyridazine] yielded a DC50 of 1.4 µM.
Work on `N#Cc1ccc2[nH]cc(CN3CCN(c4ccc5nnc(C(F)F)n5n4)CC3)c2c1` [Example 286] yielded a DC50 of 8.5 µM.
With `CN(C)CCNC(=O)c1ccc(OC2CCN(c3ccc4nnc(C(F)(F)F)n4n3)CC2)cc1` [Example 429] the DC50 was 2.6 µM.
In the case of `O=C(CCCN1CCOCC1)Nc1cccc(C2CCN(c3ccc4nnc(C(F)(F)F)n4n3)CC2)c1` [Example 661], the DC50 is reported as 0.65 µM.
`Fc1ccc(C(F)F)c(CN2CCN(c3ccc4nnc(C(F)F)n4n3)CC2)c1` [Example 780, 3-(difluoromethyl)-6-[4-[2-(difluoromethyl)-5-fluorobenzyl]piperazin-1-yl][1,2,4]triazolo[4,3-b]pyridazine] gave a DC50 of 0.51 µM.
For `C[C@@H]1CN(c2ccc3nnc(C(F)(F)F)n3n2)CCN1Cc1cc(F)cc(F)c1` [Example 567], the DC50 was greater than 16 µM.
